The test system of test [1] is Phosphorylation of ERK1/2 in MIA PaCa-2 cells. Nature of the test: Phospho-ERK1/2 MSD assay in MIA PaCa-2 cells. The test is classed as cell-based. To be noted: read-out: p-ERK IC50 (2 h, MiaPaCa-2; μM), 2 h compound treatment, MIA PaCa-2 cells, EGF stimulated. The essentials: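 Phospho-ERK1/2 measured by MSD electrochemiluminescence kit in RIPA lysates of MIA PaCa-2 cells. Cells were treated with compound titrations for 2 or 4 h at 37 °C, 5% CO2, followed by a 10 min pulse of 10 ng/mL EGF.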

In test [2] the target is GDP-bound KRAS protein (aa 1-169), containing both G12C and C118A amino acid substitutions (Homo sapiens (Human), UniProt P01116, C118A/G12C). Nature of the test: Coupled nucleotide exchange assay (SOS-mediated nucleotide exchange, AlphaScreen). It counts as biochemical. The conditions noted are these: 5 min compound pre-incubation; for IC50: read-out: Coupled exchange IC50 (5 min; μM).

For test [3], the system named is Phosphorylation of ERK1/2 in A549 cells. Nature of the test: Phospho-ERK1/2 MSD assay in A549 cells. The test is classed as cell-based. The conditions noted are these: read-out: p-ERK IC50 (2 h, A549; μM), 2 h compound treatment, A549 cells, EGF stimulated. The essentials: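 Phospho-ERK1/2 was quantified by MSD immunoassay in RIPA lysates of MIA PaCa-2 or A549 cells. Before lysis, cells received 10 ng/mL EGF for 10 min after 2 or 4 h exposure at 37° C. to a compound concentration series.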

Like-named read-outs stand apart in the source and are kept apart here. A value given as a limit tells only on which side of the number the result lay.

Sequence of GDP-bound KRAS protein (aa 1-169), containing both G12C and C118A amino acid substitutions (P01116 other isoform, or with tags, fused parts or gaps G12C/C118A): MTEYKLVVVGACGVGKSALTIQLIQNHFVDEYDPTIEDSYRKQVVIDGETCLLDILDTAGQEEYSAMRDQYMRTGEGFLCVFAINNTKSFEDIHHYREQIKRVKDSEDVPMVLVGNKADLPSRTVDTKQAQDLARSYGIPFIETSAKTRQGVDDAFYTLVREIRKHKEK

As a reminder, the IC50 is the midpoint of a concentration-inhibition curve. As to `C=CC(=O)N1C[C@H](C)N(c2nc(=O)n(-c3c(C(C)C)cnnc3C(C)C)c3nc(-c4ccccc4F)c(Cl)cc23)C[C@H]1C` (single isomer, unassigned) [Example 205-1], the IC50 is 0.07 µM in test [1] (Homo sapiens, MIA PaCa-2, 2 h) and more than 7.5 µM in test [3] (Homo sapiens, A549, 2 h). Moreover, the “Coupled exchange IC50 (5 min; μM)” value in test [2] came out at 0.098 µM.
In the case of `C=CC(=O)N1C[C@H](C)N(c2nc(=O)n(-c3c(C(C)C)cnnc3C(C)C)c3nc(-c4ccccc4F)c(Cl)cc23)C[C@H]1C` (single isomer, unassigned) [Example 205-2], the IC50 in test [1] was 0.091 µM; in test [3], more than 7.5 µM. Further, the “Coupled exchange IC50 (5 min; μM)” value in test [2] was determined as 0.078 µM.
For the molecule `C=CC(=O)N1C[C@H](C)N(c2nc(=O)n(-c3c(C(C)C)cccc3S(C)(=O)=O)c3nc(-c4ccccc4F)c(Cl)cc23)C[C@H]1C` (single isomer, unassigned) [Example 208-2], the IC50 in test [1] is 0.106 µM; in test [2], 0.117 µM; in test [3] it was more than 7.5 µM.
Take `C=CC(=O)N1C[C@H](C)N(c2nc(=O)n(-c3c(C(C)C)cccc3[S+](C)[O-])c3nc(-c4ccccc4F)c(Cl)cc23)C[C@H]1C` (single isomer, unassigned) [Example 209-1]: the IC50 in test [1] (Homo sapiens, MIA PaCa-2, 2 h) was 0.116 µM; in test [3] (Homo sapiens, A549, 2 h) it was more than 7.5 µM. Besides, in test [2], the “Coupled exchange IC50 (5 min; μM)” value came to 0.088 µM.
For the molecule `C=CC(=O)N1C[C@H](C)N(c2nc(=O)n(-c3c(C)cc([S+](C)[O-])cc3C(C)C)c3nc(-c4ccccc4C)c(Cl)cc23)C[C@H]1C` (single isomer, unassigned) [Example 213-2], the IC50 was 0.069 µM in test [1] (Homo sapiens, MIA PaCa-2, 2 h) and more than 7.5 µM in test [3] (Homo sapiens, A549, 2 h). The “Coupled exchange IC50 (5 min; μM)” value in test [2] is 0.072 µM.
`C=CC(=O)N1C[C@H](C)N(c2nc(=O)n(-c3c(C)cc([S+](C)[O-])cc3C(C)C)c3nc(-c4ccccc4C)c(Cl)cc23)C[C@H]1C` (single isomer, unassigned) [Example 213-3]: the 50% inhibitory concentration (IC50) is 0.074 µM in test [1] and more than 7.5 µM in test [3]. For the same molecule, the “Coupled exchange IC50 (5 min; μM)” value in test [2] was found to be 0.066 µM.
For the molecule `C=CC(=O)N1C[C@H](C)N(c2nc(=O)n(-c3c(C)cc(S(C)(=O)=O)cc3C(C)C)c3nc(-c4ccccc4F)c(Cl)cc23)C[C@H]1C` (single isomer, unassigned) [Example 215-2], the IC50 in test [1] (Homo sapiens, MIA PaCa-2, 2 h) is 0.086 µM; in test [3] (Homo sapiens, A549, 2 h) it was more than 7.5 µM. Further, in test [2], the “Coupled exchange IC50 (5 min; μM)” value came to 0.055 µM.
Regarding `C=CC(=O)N1C[C@H](C)N(c2nc(=O)n(-c3c(C)ccnc3C(C)C)c3nc(C4CC4(C)C)c(Cl)cc23)C[C@H]1C` (stereo partly drawn) [93-2], the half-inhibitory concentration (IC50) in test [1] is 0.558 µM; in test [2], 0.305 µM; in test [3], more than 7.5 µM.
`C=CC(=O)N1C[C@H](C)N(c2nc(=O)n(-c3c(N(C)C)ccnc3C(C)C)c3nc(-c4ccccc4F)c(Cl)cc23)C[C@H]1C` [Example 55-51, 6-Chloro-1-[4-(dimethylamino)-2-isopropyl-3-pyridyl]-4-[(2S,5R)-2,5-dimethyl-4-prop-2-enoyl-piperazin-1-yl]-7-(2-fluorophenyl)pyrido[2,3-d]pyrimidin-2-one]: the 50% inhibitory concentration (IC50) is 0.079 µM in test [1]; 0.19 µM in test [2]; more than 7.5 µM in test [3] (Homo sapiens, A549, 2 h).
Consider `C=CC(=O)N1C[C@H](C)N(c2nc(=O)n(-c3c(Cl)ccnc3C(C)C)c3nc(OC)c(-c4ccccc4F)cc23)C[C@H]1C` [Example 55-52, 1-(4-Chloro-2-isopropyl-3-pyridyl)-4-[(2S,5R)-2,5-dimethyl-4-prop-2-enoyl-piperazin-1-yl]-6-(2-fluorophenyl)-7-methoxy-pyrido[2,3-d]pyrimidin-2-one], for which the IC50 is 10 µM in test [1] (Homo sapiens, MIA PaCa-2, 2 h); 10.2 µM in test [2]; more than 7.5 µM in test [3] (Homo sapiens, A549, 2 h).
For `C=CC(=O)N1C[C@H](C)N(c2nc(=O)n(C)c3nc(-c4ccccc4F)c(Cl)cc23)C[C@H]1C` [Example 55-59, 6-Chloro-4-[(2S,5R)-2,5-dimethyl-4-prop-2-enoyl-piperazin-1-yl]-7-(2-fluorophenyl)-1-methyl-pyrido[2,3-d]pyrimidin-2-one] the same measures were 10 µM, 174 µM and more than 7.5 µM.
On to `C=CC(=O)N1C[C@H](C)N(c2nc(=O)n(C(C)C)c3nc(-c4ccccc4F)c(Cl)cc23)C[C@H]1C` [Example 55-60, 6-Chloro-4-[(2S,5R)-2,5-dimethyl-4-prop-2-enoyl-piperazin-1-yl]-7-(2-fluorophenyl)-1-isopropyl-pyrido[2,3-d]pyrimidin-2-one], for which the IC50 in test [1] (Homo sapiens, MIA PaCa-2, 2 h) was 7.77 µM; in test [2] it was 7.85 µM; in test [3] (Homo sapiens, A549, 2 h) it was more than 7.5 µM.
On to `C=CC(=O)N1C[C@H](C)N(c2nc(=O)n(-c3c(CN4CCCC4)cccc3C(C)C)c3nc(-c4ccccc4F)c(Cl)cc23)C[C@H]1C` [Example 80-10, 6-Chloro-4-[(2S,5R)-2,5-dimethyl-4-prop-2-enoyl-piperazin-1-yl]-7-(2-fluorophenyl)-1-[2-isopropyl-6-(pyrrolidin-1-ylmethyl)phenyl]pyrido[2,3-d]pyrimidin-2-one], for which the IC50 in test [1] (Homo sapiens, MIA PaCa-2, 2 h) was 0.063 µM; in test [2], 0.077 µM; in test [3] (Homo sapiens, A549, 2 h), more than 7.5 µM.
For `C=CC(=O)N1C[C@H](C)N(c2nc(=O)n(-c3c(CN4CC(F)(F)C4)cccc3C(C)C)c3nc(-c4ccccc4F)c(Cl)cc23)C[C@H]1C` [Example 80-11, 6-chloro-1-[2-[(3,3-difluoroazetidin-1-yl)methyl]-6-isopropyl-phenyl]-4-[(2S,5R)-2,5-dimethyl-4-prop-2-enoyl-piperazin-1-yl]-7-(2-fluorophenyl)pyrido[2,3-d]pyrimidin-2-one] the same measures were 0.222 µM, 0.078 µM and more than 7.5 µM.
Regarding `C=CC(=O)N1C[C@H](C)N(c2nc(=O)n(-c3c(CN4CCC4)cccc3C(C)C)c3nc(-c4ccccc4F)c(Cl)cc23)C[C@H]1C` [Example 80-12, 1-[2-(azetidin-1-ylmethyl)-6-isopropyl-phenyl]-6-chloro-4-[(2S,5R)-2,5-dimethyl-4-prop-2-enoyl-piperazin-1-yl]-7-(2-fluorophenyl)pyrido[2,3-d]pyrimidin-2-one], the IC50 in test [1] (Homo sapiens, MIA PaCa-2, 2 h) is 0.074 µM; in test [2] it was 0.064 µM; in test [3] (Homo sapiens, A549, 2 h), more than 7.5 µM.
As to `C=CC(=O)N1CCN(c2nc(=O)n(-c3c(CN(C)C)cccc3C(C)C)c3nc(-c4ccccc4F)c(Cl)cc23)[C@@H](C)C1` [Example 80-13, 6-Chloro-1-[2-[(dimethylamino)methyl]-6-isopropyl-phenyl]-7-(2-fluorophenyl)-4-[(2S)-2-methyl-4-prop-2-enoyl-piperazin-1-yl]pyrido[2,3-d]pyrimidin-2-one], the IC50 in test [1] (Homo sapiens, MIA PaCa-2, 2 h) is 0.053 µM; in test [2], 0.043 µM; in test [3] (Homo sapiens, A549, 2 h), more than 7.5 µM.
As for `C=CC(=O)N1C[C@H](C)N(c2nc(=O)n(-c3c(C)cc(CN(C)C)cc3C(C)C)c3nc(-c4ccccc4F)c(F)cc23)C[C@H]1C` [Example 80-20, 1-[4-[(Dimethylamino)methyl]-2-isopropyl-6-methyl-phenyl]-4-[(2S,5R)-2,5-dimethyl-4-prop-2-enoyl-piperazin-1-yl]-6-fluoro-7-(2-fluorophenyl)pyrido[2,3-d]pyrimidin-2-one], the IC50 in test [1] is 0.735 µM; in test [2], 0.763 µM; in test [3] (Homo sapiens, A549, 2 h), more than 7.5 µM.
With `C=CC(=O)N1C[C@H](C)N(c2nc(=O)n(-c3c(C)cc(CN(C)C)cc3C(C)C)c3nc(-c4c(O)cccc4F)c(F)cc23)C[C@H]1C` [Example 80-21, 1-[4-[(Dimethylamino)methyl]-2-isopropyl-6-methyl-phenyl]-4-[(2S,5R)-2,5-dimethyl-4-prop-2-enoyl-piperazin-1-yl]-6-fluoro-7-(2-fluoro-6-hydroxy-phenyl)pyrido[2,3-d]pyrimidin-2-one], the IC50 is 0.138 µM in test [1] (Homo sapiens, MIA PaCa-2, 2 h); 0.25 µM in test [2]; more than 7.5 µM in test [3] (Homo sapiens, A549, 2 h).
For `C=CC(=O)N1C[C@H](C)N(c2nc(=O)n(-c3c(C(C)C)cnn3C(C)C)c3nc(-c4ccccc4F)c(Cl)cc23)C[C@H]1C` [Example 100-1, 6-Chloro-1-(2,4-diisopropylpyrazol-3-yl)-4-[(2S,5R)-2,5-dimethyl-4-prop-2-enoyl-piperazin-1-yl]-7-(2-fluorophenyl)pyrido[2,3-d]pyrimidin-2-one], the IC50 was 0.123 µM in test [1] (Homo sapiens, MIA PaCa-2, 2 h); 0.084 µM in test [2]; more than 7.5 µM in test [3] (Homo sapiens, A549, 2 h).
For `C=CC(=O)N1C[C@H](C)N(c2nc(=O)n(-c3c(C(C)C)ncnc3C(C)C)c3nc(-c4ccc(C#N)cc4F)c(Cl)cc23)C[C@H]1C` [Example 100-2, 4-[6-Chloro-1-(4,6-diisopropylpyrimidin-5-yl)-4-[(2S,5R)-2,5-dimethyl-4-prop-2-enoyl-piperazin-1-yl]-2-oxo-pyrido[2,3-d]pyrimidin-7-yl]-3-fluoro-benzonitrile], the IC50 in test [1] (Homo sapiens, MIA PaCa-2, 2 h) is 0.298 µM; in test [2], 0.324 µM; in test [3] (Homo sapiens, A549, 2 h) it was more than 7.5 µM.
Turning to `C=CC(=O)N1C[C@H](C)N(c2nc(=O)n(-c3c(C(C)C)ncnc3C(C)C)c3nc(-c4ccccc4C(C)C)c(Cl)cc23)C[C@H]1C` [Example 100-4, 6-Chloro-1-(4,6-diisopropylpyrimidin-5-yl)-4-[(2S,5R)-2,5-dimethyl-4-prop-2-enoyl-piperazin-1-yl]-7-(2-isopropylphenyl) pyrido[2,3-d]pyrimidin-2-one], the IC50 in test [1] (Homo sapiens, MIA PaCa-2, 2 h) is 0.106 µM; in test [2], 0.006 µM; in test [3] (Homo sapiens, A549, 2 h) it was more than 7.5 µM.
